Test systems include KM12 colon; HS 578T breast; PC-3 prostate; HOP-62 NSCLC; OVCAR-3 ovarian; MCF7 breast; M14 melanoma; NCI-H460 lung; MOLT-4 leukemia; A498 renal; HCT-15 colon; HOP-92 NSCLC; 786-0 renal; OVCAR-4 ovarian.
Assay in all cases: inhibition of tumour cell growth, NCI panel, 48 h

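Exposure lasted 48 hours, with cells grown in 96-well plates and compounds tested at five concentrations. The concentration for full growth arrest is given as TGI.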 Bounds are passed on as bounds.

Turning to `COC(=O)c1ccc2c(c1)S/C(=C/c1ccc3ccc4cccc5ccc1c3c45)S2`, the TGI in the assay on KM12 colon was 57.3 µM; in the assay with HS 578T breast, above 100 µM; in the assay on PC-3 prostate, above 100 µM; in the assay on HOP-62 NSCLC, above 100 µM; with OVCAR-3 ovarian, 49.3 µM; in the assay with MCF7 breast, above 100 µM. The TGI in the assay with M14 melanoma, in the assay on NCI-H460 lung, in the assay on MOLT-4 leukemia, in the assay on A498 renal, in the assay on HCT-15 colon and in the assay on HOP-92 NSCLC was above 100 µM throughout. The TGI in the assay on 786-0 renal and in the assay with OVCAR-4 ovarian was above 100 µM in each case.

In the case of `CC1CN=C(N(Cc2ccccc2)C(=O)Nc2ccc(Cl)c(Cl)c2)S1` (stereo not given), the TGI with KM12 colon, in the assay on HS 578T breast, in the assay on PC-3 prostate, in the assay with HOP-62 NSCLC, with OVCAR-3 ovarian and in the assay with MCF7 breast was above 100 µM in each case. The TGI in the assay on M14 melanoma was 48.8 µM; with NCI-H460 lung, above 100 µM; in the assay on MOLT-4 leukemia, above 10 µM; with A498 renal it was above 100 µM; in the assay on HCT-15 colon, above 100 µM; in the assay on HOP-92 NSCLC, 54.5 µM. For the same compound, the TGI with 786-0 renal and in the assay on OVCAR-4 ovarian was above 100 µM in each case.

On to `CCOC(=O)C(=CNc1ccc(NC2=NCC(C)S2)cc1)C(=O)OCC` (stereo not given), for which the TGI is above 87.9 µM in the assay on KM12 colon; 74.8 µM in the assay on HS 578T breast; 62.9 µM in the assay on PC-3 prostate; above 100 µM with HOP-62 NSCLC; 60.1 µM in the assay on OVCAR-3 ovarian; above 100 µM with MCF7 breast. Moreover, the TGI in the assay on M14 melanoma was above 90.7 µM; in the assay on NCI-H460 lung, above 100 µM; in the assay with MOLT-4 leukemia it was 30 µM; in the assay with A498 renal, above 100 µM; in the assay with HCT-15 colon, above 100 µM; with HOP-92 NSCLC it was above 86.7 µM. Moreover, the TGI was 84.6 µM with 786-0 renal and above 51.8 µM in the assay on OVCAR-4 ovarian.

Take `CCOC(=O)N1N=C(/C(C)=N/OC)C(C)S1=O` (stereo not given): the TGI with KM12 colon, in the assay with HS 578T breast, in the assay with PC-3 prostate, in the assay with HOP-62 NSCLC, with OVCAR-3 ovarian and in the assay on MCF7 breast was above 100 µM throughout. Also, the TGI with M14 melanoma, with NCI-H460 lung, in the assay on MOLT-4 leukemia, with A498 renal, in the assay with HCT-15 colon and with HOP-92 NSCLC was above 100 µM in each case. In addition, the TGI in the assay on 786-0 renal and in the assay with OVCAR-4 ovarian was above 100 µM throughout.

`CC(=O)OCC(=O)O[C@@H]1[C@H]2[C@@H](OC(=O)c3ccccc3)[C@@H](C)C[C@]2(O)[C@H](OC(C)=O)[C@@]2(C)C(OC(C)=O)[C@]1(OC(C)=O)C[C@H]1C(=O)C(C)(C)C[C@@H]12` (stereo not given in full): the TGI in the assay with KM12 colon, with HS 578T breast, with PC-3 prostate, with HOP-62 NSCLC, in the assay on OVCAR-3 ovarian and with MCF7 breast was above 50 µM each time. Also, the TGI with M14 melanoma, in the assay with NCI-H460 lung, with MOLT-4 leukemia, with A498 renal, in the assay on HCT-15 colon and with HOP-92 NSCLC was above 50 µM in each case. Besides, the TGI in the assay on 786-0 renal and in the assay with OVCAR-4 ovarian was above 50 µM throughout.

For the compound `O=C1Cc2c([nH]c3ccc(Br)cc23)-c2cc(O)c(O)cc2N1`, the TGI in the assay on KM12 colon, with HS 578T breast, in the assay on PC-3 prostate, in the assay on HOP-62 NSCLC, with OVCAR-3 ovarian and in the assay on MCF7 breast was above 100 µM throughout. Also, the TGI in the assay with M14 melanoma, in the assay with NCI-H460 lung, in the assay on MOLT-4 leukemia, with A498 renal, in the assay with HCT-15 colon and with HOP-92 NSCLC was above 100 µM throughout. Besides, the TGI in the assay with 786-0 renal and in the assay on OVCAR-4 ovarian was above 100 µM in each case.

For `CCCCCCCC1(N=[N+]=[N-])C(=O)Nc2ccccc2C1=O` (stereo not given), the TGI was determined as 57.7 µM in the assay with KM12 colon; 42 µM with HS 578T breast; 24.1 µM in the assay with PC-3 prostate; 32 µM with HOP-62 NSCLC; 29.6 µM with OVCAR-3 ovarian; 34.6 µM in the assay on MCF7 breast. The TGI in the assay with M14 melanoma came to 33.2 µM; in the assay with NCI-H460 lung, 53.6 µM; in the assay with MOLT-4 leukemia, 35.2 µM; in the assay on A498 renal, 14 µM; in the assay on HCT-15 colon, 47.3 µM; in the assay on HOP-92 NSCLC it was 27.2 µM. The TGI in the assay with 786-0 renal was determined as 32 µM; with OVCAR-4 ovarian it was 29.8 µM.

In the case of `CC1=NN(c2nc(N)nc(/C(C#N)=C\c3csc([N+](=O)[O-])c3)n2)C(C)(C)C1`, the TGI in the assay with KM12 colon was above 100 µM; with HS 578T breast, 54.9 µM; in the assay with PC-3 prostate it was 41.5 µM; in the assay on HOP-62 NSCLC, 64.6 µM; in the assay with OVCAR-3 ovarian, 78.9 µM; in the assay on MCF7 breast, above 100 µM. The TGI with M14 melanoma, in the assay with NCI-H460 lung, with MOLT-4 leukemia, with A498 renal, in the assay with HCT-15 colon and with HOP-92 NSCLC was above 100 µM in each case. The figures for the TGI with 786-0 renal and in the assay with OVCAR-4 ovarian were 32.2 µM and 56.4 µM, respectively.

Consider `O=[N+]([O-])c1ccc(C(=S)Nc2ccccc2)o1`, for which the TGI with KM12 colon stood at 6.88 µM; in the assay on HS 578T breast it was 32.7 µM; with PC-3 prostate it was 4.63 µM; in the assay on HOP-62 NSCLC, 9.08 µM; in the assay on OVCAR-3 ovarian, 6.38 µM; in the assay with MCF7 breast, 5.57 µM. Further, the TGI worked out at 14 µM in the assay with M14 melanoma; 12.1 µM in the assay with NCI-H460 lung; 11.7 µM in the assay with MOLT-4 leukemia; 32.2 µM in the assay with A498 renal; 7.07 µM in the assay on HCT-15 colon; 31.8 µM in the assay with HOP-92 NSCLC. Also, the TGI with 786-0 renal was determined as 6.19 µM; with OVCAR-4 ovarian, 6.47 µM.

On to `c1cc2nnc1SCCCSc1ccc(nn1)SCCCS2`, for which the TGI was above 100 µM in the assay on KM12 colon; 99.2 µM with HS 578T breast; above 100 µM in the assay with PC-3 prostate; above 93.1 µM in the assay on HOP-62 NSCLC; above 74.1 µM in the assay on OVCAR-3 ovarian; above 100 µM in the assay on MCF7 breast. The TGI in the assay on M14 melanoma is above 57.6 µM; in the assay with NCI-H460 lung it was above 100 µM; in the assay with MOLT-4 leukemia, above 100 µM; in the assay on A498 renal, above 100 µM; with HCT-15 colon, above 100 µM; in the assay on HOP-92 NSCLC it was above 100 µM. Further, the TGI in the assay with 786-0 renal and with OVCAR-4 ovarian was above 100 µM throughout.

With `Oc1[nH]c2ccccc2c1N=NC(=S)Nc1ccccc1Cl`, the TGI was 14.9 µM in the assay with KM12 colon; 56.1 µM in the assay on HS 578T breast; above 100 µM with PC-3 prostate; 37.9 µM in the assay on HOP-62 NSCLC; 37.6 µM with OVCAR-3 ovarian; 33.4 µM in the assay with MCF7 breast. For the same compound, the TGI in the assay with M14 melanoma is 14.9 µM; in the assay on NCI-H460 lung it was 52.2 µM; in the assay with MOLT-4 leukemia, 4.95 µM; in the assay with A498 renal, 35.4 µM; in the assay with HCT-15 colon, above 100 µM; in the assay with HOP-92 NSCLC, 56.2 µM. Besides, the results for the TGI in the assay with 786-0 renal and in the assay on OVCAR-4 ovarian were 20.8 µM and 63.7 µM, respectively.

Turning to `Cc1cn(CCCCC2=NCCCN2)c(=O)[nH]c1=O`, the TGI with KM12 colon was above 48.9 µM; in the assay on HS 578T breast, above 60.5 µM; in the assay on PC-3 prostate, above 35 µM; in the assay on HOP-62 NSCLC it was above 60.7 µM; in the assay on OVCAR-3 ovarian, above 33.1 µM; in the assay on MCF7 breast it was above 34.4 µM. Besides, the TGI with M14 melanoma was above 32.4 µM; in the assay on NCI-H460 lung, above 67.8 µM; with MOLT-4 leukemia it was above 37.1 µM; with A498 renal, above 49.4 µM; in the assay on HCT-15 colon it was above 47.2 µM; in the assay on HOP-92 NSCLC it was 18.3 µM. Further, the TGI was above 30.1 µM in the assay on 786-0 renal and above 40.7 µM in the assay with OVCAR-4 ovarian.

On to `COC(=O)[C@]1(NC(=O)c2ccccc2)C[C@H]1C=O`, for which the TGI in the assay with KM12 colon, in the assay with HS 578T breast, in the assay with PC-3 prostate, in the assay with HOP-62 NSCLC, with OVCAR-3 ovarian and with MCF7 breast was above 100 µM each time. In addition, the TGI in the assay with M14 melanoma was above 100 µM; in the assay with NCI-H460 lung it was 77 µM; in the assay with MOLT-4 leukemia, above 100 µM; with A498 renal, above 100 µM; with HCT-15 colon it was above 100 µM; in the assay on HOP-92 NSCLC, above 100 µM. In addition, the TGI in the assay with 786-0 renal and in the assay with OVCAR-4 ovarian was above 100 µM each time.

Take `CC1(C)OCC([C@H]2O[C@@H](CC(=S)NCCCCCCCCCCCCNC(=S)C[C@H]3O[C@@H](C4COC(C)(C)O4)[C@H]4OC(C)(C)O[C@H]43)[C@H]3OC(C)(C)O[C@H]32)O1` (stereo not given in full): the TGI with KM12 colon, in the assay with HS 578T breast, in the assay on PC-3 prostate, with HOP-62 NSCLC, with OVCAR-3 ovarian and in the assay on MCF7 breast was above 100 µM throughout. Also, the TGI with M14 melanoma was above 100 µM; in the assay with NCI-H460 lung, above 100 µM; with MOLT-4 leukemia, 80.2 µM; in the assay on A498 renal, above 100 µM; in the assay with HCT-15 colon it was above 100 µM; with HOP-92 NSCLC, above 100 µM. Besides, the TGI with 786-0 renal and in the assay with OVCAR-4 ovarian was above 100 µM in each case.

In the case of `Nc1ncnc2oc(C3OC(COC(=O)c4ccccc4)C(OC(=O)c4ccccc4)C3OC(=O)c3ccccc3)nc12` (stereo not given), the TGI with KM12 colon, in the assay with HS 578T breast, in the assay on PC-3 prostate, in the assay on HOP-62 NSCLC, in the assay on OVCAR-3 ovarian and in the assay with MCF7 breast was above 100 µM each time. Besides, the TGI is above 100 µM with M14 melanoma; above 100 µM in the assay with NCI-H460 lung; above 100 µM in the assay on MOLT-4 leukemia; 82.6 µM with A498 renal; above 100 µM in the assay with HCT-15 colon; above 100 µM with HOP-92 NSCLC. Moreover, the TGI in the assay on 786-0 renal and in the assay with OVCAR-4 ovarian was above 100 µM each time.

The values above are taken from PubChem BioAssay (NCI).
